From US10092620B2, “Uses of cyclic peptides for treating and preventing atherosclerosis” (THE SCRIPPS RESEARCH INSTITUTE, priority 2013, dated 2018)
“Also recorded” adds a separate entry of the source. Non-standard residues stand in square brackets, D forms with d. dNMeW = CN[C@H](Cc1c[nH]c2ccccc12)C(=O)O; dNMeE = CN[C@H](CCC(=O)O)C(=O)O

Legend:
[1] = tested on: LDLr-null mice; test: in vivo efficacy study: plasma total cholesterol in high-fat-fed LDLr-null mice; parameters: species or system mouse; details: oral 35 mg/kg in drinking water, two weeks, female LDLr-null mice, high-fat diet; FIG. 7
Excerpt: Encouraged by the above findings, we carried out a 2-week pilot study to determine the effect of 1 on plasma total cholesterol levels. As an animal model, we employed the LDLr-null mouse, which has a human-like lipoprotein profile and is a leading animal model for studying hypercholesterolemia and atherogenesis. Considering that the abiotic nature of cyclic D,L-α-peptides renders them highly resistant to proteolysis, we chose to conduct this pilot in vivo efficacy study via the more convenient oral route of administration. Thus, the cyclic D,L-α-peptide was administered orally in the drinking water for two weeks (each mouse drank ˜0.5 mg peptide per day, or ˜25 mg/kg/day) to mice maintained on a high-fat diet.
(§1) In vivo efficacy study: LDL receptor-null (LDLr^−/−) mice on a C57BL/6J background were initially purchased from Jackson Laboratories (Bar Harbor, Me.) and were bred in house. The mice were weaned at 4 weeks of age and were fed ad libitum a standard chow diet (Harlan Teklad 7019) until they were 10-weeks old, when they were switched to a high-fat Western diet (WD) containing 15.8% (wt/wt) fat, 1.25% (wt/wt) cholesterol, and no cholate (Harlan Teklad 94059). At the time that the WD was started, the test cyclic peptide was added to the drinking water at a high dose of 180 μM (200 μg/mL) or a low dose of 18 μM (20 μg/mL) and the mice (female, n=8 per dosing group) were continued on WD for 10 weeks. The lyophilized peptide was easily dissolved in PBS (pH 7.4) containing 1% sucrose, resulting in a clear solution. The drinking water solution was replaced with fresh solution every day. A control group of eight mice (female, n=8) were fed WD with vehicle (PBS with 1% sucrose) drinking water. The mice consumed approximately 2.5 mL of water per day per mouse, and there was no significant difference in water or food consumption between groups.
Effect of cyclic peptides on plasma total cholesterol: The mice were bled after two weeks of treatment and at the time of harvest (10 weeks). The blood (200 μL) was collected after an overnight fast (14-16 h) by retro-orbital puncture into a heparinized capillary tube at two weeks, or by cardiac puncture into EDTA anti-coagulant coated tubes at the time of harvest (10 weeks). Plasma was separated from whole blood immediately by centrifugation of the blood samples at 5000 rpm for 10 min at 4° C., and was then stored at −80° C. Plasma total cholesterol (TC) was measured using an enzymatic colorimetric method kit (Amplex® red cholesterol assay kit, No. A12216, Life Technologies) according to the manufacturer's instructions.
In addition, several peptides were administered orally to mice at a 35 mg/kg dose (unless otherwise noted) in the drinking water for two weeks. The female LDLr-null mice maintained on a high-fat diet were provided with peptide-treated 1% sucrose/PBS or 1% sucrose/PBS alone as the drinking water ad libitum. Cholesterol levels were then determined. The data are shown in FIG. 7 as a scatter plot along with mean±SD. p values were determined by the one-way ANOVA test with a post hoc Tukey-Kramer test.

[2] = tested on: LDLr-null mice; test: evaluation of atherosclerosis: whole aorta lesion area and aortic sinus lesion volume; format: in vivo, mouse; details: oral 35 mg/kg in drinking water, 10 weeks, female LDLr-null mice; FIG. 8; 35 mg/kg
Excerpt: as §1
Evaluation of atherosclerosis: Atherosclerotic lesion severity was assessed in the aortae as previously described in Mullick et al., J. Clin. Invest. 115, 3149-3156, 2005. Briefly, at euthanasia, animals were perfused with PBS, followed by 4% formaldehyde (10% UltraPure EM Grade from Polysciences diluted in PBS, pH 7.2). For en face analysis, the entire mouse aorta was dissected from the proximal ascending aorta to the bifurcation of the iliac artery by using a dissecting microscope. Adventitial fat was removed, and the aorta was opened longitudinally, pinned flat onto black dissecting wax, stained with Sudan IV, and photographed at a fixed magnification. The photographs were digitized, and total aortic areas and lesion areas were calculated by using Adobe Photoshop version CS4, Chromatica V, and NIH Scion Image software (http://rsb.info.nih.gov/nih-image/Default.html). The results were reported as a percentage of the total aortic area that contained lesions.
As a second assessment of atherosclerosis, lesions of the aortic root (heart sinus) were analyzed. Utilizing stereological principles, lesion volume was estimated across a fixed distance of the aortic sinus. […] Lesion areas found only within the valve cusp were measured. […] Lesion volume was calculated from an integration of the measured cross-sectional areas. […]
Other than their in vivo cholesterol reducing activities, several peptides were also examined for ability to inhibit development of atherosclerotic legions in vivo. […] All charts in the figure are shown as a scatter plot along with mean±SD. p values were determined by the one-way ANOVA test with a post hoc Tukey-Kramer test.

[3] = tested on: HDL in human plasma; test: pre-beta HDL ELISA assay: remodeling HDL in human plasma in vitro; format: biochemical
Protocol: First, various cyclic peptides, including the majority of compounds shown in FIG. 2, were assessed for activities for remodeling HDL in human plasma in vitro. Unlike western blot which was used to generate data shown in FIG. 2, here a pre-beta HDL ELISA assay was used to measure pre-beta HDL levels. Results from the assay are shown in Table 1, which lists the peptides in the order of their activities in remodeling HDL.

[4] = tested on: plasma HDL; test: in vivo plasma HDL remodeling after intraperitoneal injection (Western blotting for mouse apoA-I); details: male mice (n=3), i.p. 18-24 mg/kg; FIG. 9
Protocol: To ascertain if the cyclic D,L-α-peptides function in vivo as modulators of HDL, we administered 1 to mice (BALB/c, n=3) via intraperitoneal injection (i.p.) at a dose of 20 mg/kg. After various times, blood was drawn and the plasma was analyzed by Western blotting to determine the levels of the HDL subpopulations.
In vivo plasma remodeling: Cyclic peptide c[wLwReQeR], 1, was dissolved in 10% sucrose, and sterile filtered through a 0.22-μm syringe filter before injection. Mice were fasted beginning 12 h before dosing, and continued the fast until after the 8-h time point blood draw was completed. Groups of three mice received a 20 mg/kg dose of the cyclic peptide via intraperitoneal injection (0.3 mL). Blood was drawn (30-60 μL) from the retro-orbital sinus into a heparinized capillary tube before dosing (0 min) and at different intervals from 30 min to 8 h after dosing. Plasma was isolated immediately from the whole blood by centrifugation at 5000 rpm for 10 min at 4° C., after which 10 μL of plasma were mixed with 90 μL of 50% sucrose, vortexed for 30 s, and stored at 4° C. until all time points had been collected (samples were stored from 0-8 h). Samples were then mixed with 20 μL of 6× native loading buffer (125 mM tris, pH 6.8, 0.02% bromophenol, 20% glycerol). 6 μL of these samples were loaded onto a 4-20% polyacrylamide gel. Gels were run at constant 80 V at 4° C. for 14 h using a Laemli buffer system (25 mM tris, 192 mM glycine, pH 8.3). Gels were then blotted onto nitrocellulose membranes (0.45 μm, Bio-Rad) at constant 30 V at 4° C. for 2 h using the Laemli buffer (no methanol). The membrane was blocked with 5% non-fat dry milk (NFDM) in TBST (20 mM tris, 150 mM NaCl, pH 7.6, 0.1% Tween-20) for 1 h at 23° C., and then washed once for 10 min with TBST. […]
In vivo plasma HDL remodeling activities of some of the peptides were also analyzed. […] Results shown in the figure were determined by Western blotting for mouse apoA-I.

Substance	plasma cholesterol levels (in words) [1]	development of atherosclerotic lesions: whole aorta lesion areas and aortic sinus lesion volumes (in words) [2]	activity in generating pre-beta HDL (in words) [3]	in vivo plasma HDL remodeling, level of lipid-poor pre-beta particles [4]	Pre-beta HDL generated (normalized level) ([3]; pre-beta HDL ELISA)
c[(Me)wLwR(Me)eQeR] (cyclo([dNMeW]L[dW]R[dNMeE]Q[dE]R)) [SEQ ID NO:46]	negatively affect	remains very effective as the parent compound; also recorded: similarly effective as the parent compound in preventing the development of atherosclerotic lesions	negatively affect	–	–
82 (cyclo(WIW[dW]K[dH]K[dH]); SMILES CC[C@H](C)[C@@H]1NC(=O)[C@H](Cc2c[nH]c3ccccc23)NC(=O)[C@@H](Cc2c[nH]cn2)NC(=O)[C@H](CCCCN)NC(=O)[C@@H](Cc2c[nH]cn2)NC(=O)[C@H](CCCCN)NC(=O)[C@@H](Cc2c[nH]c3ccccc23)NC(=O)[C@H](Cc2c[nH]c3ccccc23)NC1=O) [compound 82]	–	–	–	able to remodel plasma HDL to increase the level of lipid-poor pre-beta particles	–
53 (cyclo([dW]L[dW]K[dH]S[dH]K); SMILES CC(C)C[C@@H]1NC(=O)[C@@H](Cc2c[nH]c3ccccc23)NC(=O)[C@H](CCCCN)NC(=O)[C@@H](Cc2c[nH]cn2)NC(=O)[C@H](CO)NC(=O)[C@@H](Cc2c[nH]cn2)NC(=O)[C@H](CCCCN)NC(=O)[C@@H](Cc2c[nH]c3ccccc23)NC1=O) [compound 53]	–	–	–	able to remodel plasma HDL to increase the level of lipid-poor pre-beta particles	0.79
